Data on nine molecules can be found in US20010053797A1 (priority 1998, published 2001).

“Also recorded” adds a separate entry of the source.

In assay [1] the test system is murine cortical cell cultures (neurons), NMDA receptor. The experiment in a line: NMDA neurotoxicity in murine cortical cell cultures, medium LDH. The conditions noted are these: for effect on potentiation of NMDA neurotoxicity by GSH: NMDA plus GSH plus compound. It counts as cell-based, Swiss Webster mice. As to the method: Cultures were incubated in 5% CO2 at 37° C.
Experiments were conducted at 13-15 days in vitro.

In assay [2] the test system is cortical neurons and glia. Briefly: Chemical hypoxia (azide) and glucose deprivation in cortical cell cultures, medium LDH. In kind it is cell-based, Swiss Webster mice. The conditions noted are these: for effect on potentiation of azide toxicity/glucose deprivation by GSH: 3 mM azide plus 100 μM GSH plus compound, 30 min. The method, then:
Primary cultures containing both cortical neurons and glia were prepared from gravid Swiss Webster mice as previously described. (Regan , R. F. and Choi, D. W., The effect of NMDA, AMPA/kainate, and calcium channel antagonists on traumatic cortical neuronal injury in culture, Brain Res, 633: 236-242, 1994). Plating medium consisted of Eagle's minimal essential medium (MEM), 5% equine serum, 5% fetal bovine serum, 2 mM glutamine, and 23 mM glucose. Cultures were incubated in 5% CO2 at 37° C. Two-thirds of the culture medium was exchanged twice weekly with MEM containing 10% equine serum, 2 mM glutamine, and 23 mM glucose. Glial cell division was inhibited at 4-7 days in vitro with 10^−5 M cytosine arabinoside.
Chemical hypoxia was induced with 3 mM azide, which unlike cyanide is not volatile and has little effect on copper-zinc and manganese superoxide dismutases at low millimolar concentrations. (Misra, H. P. and Fridovich, I., Inhibition of superoxide dismutases by azide, Arch Biochem Biophys 189: 317-322, 1978). Experiments were conducted at 13-16 days in vitro in a glucose-free buffer containing 116 mM NaCl, 5.4 mM KCl, 1.8 mM CaCl2, 1 mM NaH2PO4, 26.2 mM NaHCO3, 0.8 mM MgSO4, and amino acids (MEM amino acids, Sigma Chemical Co., St. Louis, Mo., U.S.A.). After incubation for 30-90 min at 37° C. in 5% CO2, cultures were washed into MEM containing 10 mM glucose and were returned to the incubator.
Cell death was estimated 21-25 h after azide exposure by inspection under phase-contrast microscopy, and was quantified by assaying lactate dehydrogenase (LDH) activity in the medium, as previously described. (Regan, R. F. and Panter, S. S., Traumatic neuronal injury in cortical cell culture is attenuated by 21-aminosteroids, Brain Res, 682: 144-150, 1995). Medium LDH in this culture system is an accurate marker of neuronal death that correlates well with cell counts. (Koh, J. Y. and Choi, D. W., Vulnerability of cultured cortical neurons to damage by excitotoxins: Differential susceptibility of neurons containing NADPH-diaphorase, J Neurosci 8: 2153-2163, 1988). […] (Koh, J. Y. and Choi, D. W., 1988). The LDH activity in the medium of sister cultures exposed to sham wash alone was subtracted from all values to obtain the LDH signal associated specifically with neurotoxin exposure.
Data were analyzed by one-way analysis of variance. Differences between groups and a single mean were assessed with the Dunnett multiple comparisons test; when groups were compared to more than one mean, the Tukey-Kramer post hoc test was used.

In another assay the test system is GSH binding sites. The conditions noted are these: cited from earlier work.

As for `C[C@]12N[C@H](Cc3ccccc31)c1ccccc12` [MK-801], the LDH release in assay [1] (8 μM NMDA plus GSH plus MK-801, scaled to 300 μM NMDA (=100)) is −1.24±1.58%. Also, the “cell death due to 8 μM NMDA plus GSH” value in assay [1] (8 μM NMDA plus GSH plus compound) is listed as “completely blocked”. For the same molecule, the “effect on potentiation of azide toxicity/glucose deprivation by GSH” value in assay [2] is recorded as “blocked”. Regarding `CN[C@H](CC(=O)O)C(=O)O` [NMDA, N-methyl-D-aspartate], the “neuronal death by NMDA” value in assay [1] (24 μM NMDA) is “widespread neuronal death”; in assay [1] (300 μM NMDA, sister cultures (=100)) it was “essentially complete neuronal death without injuring glia”.

As to `O[C@H](CS)[C@H](O)CS` (racemic) [dithiothreitol], the “effect on azide neurotoxicity in glucose-free buffer (neuronal death)” value in assay [2] (3 mM azide 30 min with compound, LDH 21-25 h later) was “concentration-toxicity profile that was similar to GSH”.

As to `CSC[C@H](NC(=O)CC[C@H](N)C(=O)O)C(=O)NCC(=O)O` [SMG, S-methylglutathione], in assay [1], the “effect on potentiation of NMDA neurotoxicity by (sulfhydryl) reducing agents” value is recorded as “blocked the potentiation” and the “effect on potentiation of NMDA neurotoxicity by GSH” value was “blocks the potentiation; also recorded: completely blocked; also recorded: antagonized the effect of GSH”. Besides, in assay [1] (compound added with low micromolar NMDA, 20-25 h), the “effect on NMDA neurotoxicity (neuronal death, medium LDH)” value is “inactive per se”. The “effect on glutathione binding” value in the assay with GSH binding sites is “displace glutathione binding”. Consider `NS(=O)(=O)c1cccc2c1c([N+](=O)[O-])cc1[nH]c(=O)c(=O)[nH]c12` [NBQX, 1,2,3,4-tetrahydro-6-nitro-2,3-dioxo-benzo[f]quinoxaline-7-sulfonamide], for which the “effect on potentiation of azide toxicity/glucose deprivation by GSH” value in assay [2] is “not and no effect”. Take `N[C@@H](CS)C(=O)O` [cysteine]: the “effect on glutathione binding” value in the assay with GSH binding sites is reported as “selectively inhibited”. For the molecule `N[C@@H](CCC(=O)O)C(=O)O` [glutamate], in the assay on GSH binding sites, the “effect on glutathione binding” value is reported as “not”. In the case of `[N-]=[N+]=[N-]` [azide], in assay [2] (3 mM azide in glucose-free medium, 30 minutes), the “toxicity of azide alone” value is reported as “tolerated by most neurons”.

B1: catalase: catalase, added at a concentration sufficient to inhibit the neurotoxicity of the pro-oxidant hemoglobin (protein, UniProt P00432 2-527, looked up)
Catalase: ADNRDPASDQMKHWKEQRAAQKPDVLTTGGGNPVGDKLNSLTVGPRGPLLVQDVVFTDEMAHFDRERIPERVVHAKGAGAFGYFEVTHDITRYSKAKVFEHIGKRTPIAVRFSTVAGESGSADTVRDPRGFAVKFYTEDGNWDLVGNNTPIFFIRDALLFPSFIHSQKRNPQTHLKDPDMVWDFWSLRPESLHQVSFLFSDRGIPDGHRHMNGYGSHTFKLVNANGEAVYCKFHYKTDQGIKNLSVEDAARLAHEDPDYGLRDLFNAIATGNYPSWTLYIQVMTFSEAEIFPFNPFDLTKVWPHGDYPLIPVGKLVLNRNPVNYFAEVEQLAFDPSNMPPGIEPSPDKMLQGRLFAYPDTHRHRLGPNYLQIPVNCPYRARVANYQRDGPMCMMDNQGGAPNYYPNSFSAPEHQPSALEHRTHFSGDVQRFNSANDDNVTQVRTFYLKVLNEEQRKRLCENIAGHLKDAQLFIQKKAVKNFSDVHPEYGSRIQALLDKYNEEKPKNAVHTYVQHGSHLSAREKANL
As for B1, the “effect on potentiation of NMDA neurotoxicity by GSH” value in assay [1] is reported as “No effect was observed”.
